Test results from publication PMC10558864 (Heliyon, 2023).
Where no end group is shown, it is not given here.

Assays:
[1] = test system: E. coli^N (standard strain); type: cell-based, Escherichia coli; conditions: micro broth dilution, 37 °C, 24 h, MTT indicator, triplicates
S. pyogenes = type: cell-based, Streptococcus pyogenes; conditions: micro broth dilution, 37 °C, 24 h, MTT indicator, triplicates
S. aureus = type: cell-based, Staphylococcus aureus; conditions: micro broth dilution, 37 °C, 24 h, MTT indicator, triplicates
K. pneumoniae = type: cell-based, Klebsiella pneumoniae; conditions: micro broth dilution, 37 °C, 24 h, MTT indicator, triplicates
S. typhi^N = type: cell-based, Salmonella typhi; conditions: micro broth dilution, 37 °C, 24 h, MTT indicator, triplicates
MRSA [2] = type: cell-based, methicillin-resistant Staphylococcus aureus; conditions: micro broth dilution, 37 °C, 24 h, MTT indicator, triplicates
S. typhi^R [3] = type: cell-based, Salmonella typhi; conditions: micro broth dilution, 37 °C, 24 h, MTT indicator, triplicates
[4] = test system: E. coli^R (resistant strain); type: cell-based, Escherichia coli; conditions: micro broth dilution, 37 °C, 24 h, MTT indicator, triplicates
S. typhi^R [5] = type: cell-based, Salmonella typhi
MRSA [6] = type: cell-based, methicillin-resistant Staphylococcus aureus
E. coli^R = type: cell-based, Escherichia coli
human erythrocytes = experiment: Hemolytic activity; type: cell-based; conditions: 1% human erythrocytes in PBS pH 7.40, 37 °C, 1 h, absorbance 570 nm
[7] = test system: microorganisms tested (standard and resistant bacterial strains); experiment: MIC range over the strains tested and therapeutic index; type: cell-based; conditions: range over the strains tested, micro broth dilution
[8] = FIC(A) = MIC of antibiotic in the presence of peptide / MIC of antibiotic alone
[9] = checkerboard, FIC(A)+FIC(P), 37 °C, 24 h

FALSILGALGIKK [BRGP-006]
Minimum inhibitory concentration; MIC, E. coli^N [1]: 470 µM | Minimum inhibitory concentration; MIC, S. pyogenes (S. pyogenes): 470 µM | Minimum inhibitory concentration; MIC, S. aureus (S. aureus): 939 µM | Minimum inhibitory concentration; MIC, K. pneumoniae (K. pneumoniae): 1879 µM | Minimum inhibitory concentration; MIC, S. typhi^N (S. typhi^N): >1879 µM | Minimum inhibitory concentration; MIC, MRSA (MRSA [2]): 235 µM | Minimum inhibitory concentration; MIC, S. typhi^R (S. typhi^R [3]): 235 µM | Minimum inhibitory concentration; MIC, E. coli^R [4]: 470 µM | FIC index of Cefotaxime in combination with the peptide, S. typhi^R (S. typhi^R [5]; [8]): 0.50 | FIC index of Chloramphenicol in combination with the peptide, S. typhi^R (S. typhi^R [5]; [8]): 0.50 | FIC index of Erythromycin in combination with the peptide, S. typhi^R (S. typhi^R [5]; [8]): 1.00 | FIC index of peptide in combination with Cefotaxime, S. typhi^R (S. typhi^R [5]; [9]): 1.00 | FIC index of peptide in combination with Chloramphenicol, S. typhi^R (S. typhi^R [5]; [9]): 0.53 | FIC index of peptide in combination with Erythromycin, S. typhi^R (S. typhi^R [5]; [9]): 1.50 | FIC index of Cefotaxime in combination with the peptide, MRSA (MRSA [6]; [8]): 0.50 | FIC index of Chloramphenicol in combination with the peptide, MRSA (MRSA [6]; [8]): 0.25 | FIC index of Erythromycin in combination with the peptide, MRSA (MRSA [6]; [8]): 1.00 | FIC index of peptide in combination with Cefotaxime, MRSA (MRSA [6]; [9]): 0.75 | FIC index of peptide in combination with Chloramphenicol, MRSA (MRSA [6]; [9]): 0.75 | FIC index of peptide in combination with Erythromycin, MRSA (MRSA [6]; [9]): 1.030 | FIC index of Cefotaxime in combination with the peptide, E. coli^R (E. coli^R; [8]): 0.50 | FIC index of Chloramphenicol in combination with the peptide, E. coli^R (E. coli^R; [8]): 0.25 | FIC index of Erythromycin in combination with the peptide, E. coli^R (E. coli^R; [8]): 0.12 | FIC index of peptide in combination with Cefotaxime, E. coli^R (E. coli^R; [9]): 2.50 | FIC index of peptide in combination with Chloramphenicol, E. coli^R (E. coli^R; [9]): 0.75 | FIC index of peptide in combination with Erythromycin, E. coli^R (E. coli^R; [9]): 0.25 | MHC (minimum concentration of peptide that causes hemolysis) (human erythrocytes): 1.503 mM | MIC range [7]: 235 to 1879 µM
